Results on one compound are retold here after patent US11718624B2, “Solid state forms of substituted pyrazolopyrimidines and uses thereof” (KSQ Therapeutics, Inc., priority 2020, dated 2023).

Structures are written as SMILES.

The data set in a line: Co-crystal screening experiments with Formula II (Table 17). It counts as physicochemical. As to conditions: XRPD. On the procedure:
Additional co-crystal screens were carried out to identify further solid state forms of Formula (II).
Differential scanning calorimetry (DSC) was carried out with a TA Instruments Q2000 instrument (closed aluminum sample pan aluminum sample pan with a pinhole in the lid, heating rate 20 K/min). The melting point is understood as the peak maximum.
Light microscopy was performed on a Leitz Orthoplan polarized microscope part #130880, generally a 10×10 magnification was applied.
X-ray powder diffraction (XRPD) was carried out with a Stoe Stadi P diffractometer equipped with a Mythen1K detector operating with Cu-Kα1 radiation. The measurements with this instrument were performed in transmission at a tube voltage of 40 kV and 40 mA tube power. A curved Ge monochromator allows testing with Cu-Kα1 radiation. The following parameters were set: 0.02° 2θ step size, 12 s step time, 1.5-50.5° 2θ scanning range, and 1° 2θ detector step (detector mode in step scan). For a typical sample preparation about 10 mg of sample was placed between two acetate foils and mounted into a Stoe transmission sample holder. The sample was rotated during the measurement. All sample preparation and measurement was done in an ambient air atmosphere.
TG-FTIR measurements were carried out with a Netzsch Thermo-Microblanace TG209 coupled to a Bruker FTIR Spectrometer Vector 22 (sample pans with a pinhole, N2 atmosphere, heating rate 10° C./min to 300 or 350° C.).
The starting material was a freebase form of Formula (II).

As for `COc1ncnc(C2CC2)c1-c1ncc2cnn(Cc3ccc(-c4nc(C(F)(F)F)cn4C(C)C)cc3)c2n1` [Compound of Formula (II), 6-(4-cyclopropyl-6-methoxypyrimidin-5-yl)-1-(4-(1-isopropyl-4-(trifluoromethyl)-1H-imidazol-2-yl)benzyl)-1H-pyrazolo[3,4-d]pyrimidine], the “Result (co-crystal screening)” value by setting is: (Experiment 1: material as received) “Free base”; (Experiment 6: benzoic acid (1:1.1 eq), EtOAc 0.5 mL/heptane 3 mL, agitated 1 day) “Free base”; (Experiment 16: gallic acid in acetone, evaporation, glassy residue treated with water/isopropanol) “Free base”; (Experiment 17: 300 mg, 430 mg gallic acid, EtOH, evaporated three days) “Gallic acid”.
